According to ChEMBL document CHEMBL3046782, “Fungicidial Activity of Benthiavalicarb-isopropyl against Phytophthora infestans and Its Controlling Activity against Late Blight Diseases” (J Pestic Sci, 2005):
Values after ≈ are worked out from the molar mass of the structure shown. Active and inactive are the calls of the source. No cut-off for these calls is given here.

Tests used:
Phytophthora infestans [1] = test: Antifungal activity against Phytophthora infestans in potato tuber slices assessed as inhibition of zoosporangia motility at 1 ug/ml after 3 hr relative to control; format: functional, organism-based
Phytophthora infestans [2] = test: Antifungal activity against Phytophthora infestans in potato tuber slices assessed as inhibition of zoosporangia motility at 10 ug/ml after 3 hr relative to control; format: functional, organism-based
Phytophthora infestans [3] = test: Antifungal activity against Phytophthora infestans in potato tuber slices assessed as inhibition of zoosporangia motility at 100 ug/ml after 3 hr relative to control; format: functional, organism-based
Phytophthora infestans [4] = test: Antifungal activity against Phytophthora infestans in potato tuber slices assessed as inhibition of zoosporangia release at 1 ug/ml after 3 hr relative to control; format: functional
Phytophthora infestans [5] = test: Antifungal activity against Phytophthora infestans in potato tuber slices assessed as inhibition of zoosporangia release at 10 ug/ml after 3 hr relative to control; format: functional
Phytophthora infestans [6] = test: Antifungal activity against Phytophthora infestans in potato tuber slices assessed as inhibition of zoosporangia release at 100 ug/ml after 3 hr relative to control; format: functional
Phytophthora infestans [7] = test: Antifungal activity against Phytophthora infestans in potato tuber slices assessed as inhibition of cystospore germination at 0.1 ug/ml after 6 hr relative to control; format: functional
Phytophthora infestans [8] = test: Antifungal activity against Phytophthora infestans in potato tuber slices assessed as inhibition of cystospore germination at 1 ug/ml after 6 hr relative to control; format: functional
Phytophthora infestans [9] = test: Antifungal activity against Phytophthora infestans in potato tuber slices assessed as inhibition of cystospore germination at 10 ug/ml after 6 hr relative to control; format: functional
Phytophthora infestans [10] = test: Antifungal activity against Phytophthora infestans in potato tuber slices assessed as inhibition of zoosporangia germination at 0.1 ug/ml after 6 hr relative to control; format: functional
Phytophthora infestans [11] = test: Antifungal activity against Phytophthora infestans in potato tuber slices assessed as inhibition of zoosporangia germination at 1 ug/ml after 6 hr relative to control; format: functional
Phytophthora infestans [12] = test: Antifungal activity against Phytophthora infestans in potato tuber slices assessed as inhibition of zoosporangia germination at 10 ug/ml after 6 hr relative to control; format: functional
Phytophthora infestans [13] = test: microbe, parasite or virus in culture; format: functional; settings: Tuber, in Solanum tuberosum, 48 h
Phytophthora infestans [14] = test: microbe, parasite or virus in culture; format: functional; settings: Tuber, in Solanum tuberosum, 48 h; remark: listed apart in the source
Phytophthora infestans [15] = test: microbe, parasite or virus in culture; format: functional; settings: Tuber, in Solanum tuberosum, 48 h; remark: listed apart in the source
Phytophthora katsurae = test: Antifungal activity against Phytophthora katsurae assessed as inhibition of mycelial growth after 5 to 7 days; format: functional, organism-based; settings: for IC50: read-out: I50
Phytophthora megasperma = test: Antifungal activity against Phytophthora megasperma assessed as inhibition of mycelial growth after 5 to 7 days; format: functional, organism-based; settings: for IC50: read-out: I50
Phytophthora porri = test: Antifungal activity against Phytophthora porri IFO 30416 assessed as inhibition of mycelial growth after 5 to 7 days; format: functional, organism-based; settings: for IC50: read-out: I50
Phytophthora infestans [16] = test: Antifungal activity against Phytophthora infestans infected potato plant assessed as control of late blight at 50 to 75 g/ha treated 4 to 5 times at 7 day interval; format: functional, organism-based
Phytophthora infestans [17] = test: Antifungal activity against Phytophthora infestans infected tomato assessed as control of late blight at 25 to 50 g/ha treated 4 to 5 times at 7 day interval; format: functional, organism-based
Phytophthora infestans [18] = test: Antifungal activity against Phytophthora infestans infected tomato assessed as systemic activity of controlling late blight at 100 mg/l after 24 hr; format: functional, organism-based
Phytophthora infestans [19] = test: Antifungal activity against Phytophthora infestans infected tomato assessed as control of late blight at 300 mg/l after 24 hr by greenhouse test; format: functional, organism-based
Phytophthora infestans [20] = test: Antifungal activity against Phytophthora infestans infected tomato assessed as translaminar activity of controlling late blight at 3 to 100 mg/l after 24 hr; format: functional, organism-based
Phytophthora infestans [21] = test: Antifungal activity against Phytophthora infestans infected tomato assessed as control of late blight at 10 mg/l after 12 hr by greenhouse test; format: functional, organism-based
Phytophthora nicotianae = test: Antifungal activity against Phytophthora nicotianae IFO 30595 assessed as inhibition of mycelial growth after 5 to 7 days; format: functional, organism-based; settings: for IC50: read-out: I50
Phytophthora cactorum = test: Antifungal activity against Phytophthora cactorum IFO 30474 assessed as inhibition of mycelial growth after 5 to 7 days; format: functional, organism-based; settings: for IC50: read-out: I50
Phytophthora palmivora = test: Antifungal activity against Phytophthora palmivora IFO 30285 assessed as inhibition of mycelial growth after 5 to 7 days; format: functional, organism-based; settings: for IC50: read-out: I50
Phytophthora capsici = test: Antifungal activity against Phytophthora capsici IFO 8386 assessed as inhibition of mycelial growth after 5 to 7 days; format: functional, organism-based; settings: for IC50: read-out: I50
Phytophthora infestans [22] = test: Antifungal activity against Phytophthora infestans C-3 assessed as inhibition of mycelial growth after 5 to 7 days; format: functional, organism-based; settings: for IC50: read-out: I50
Phytophthora infestans [23] = test: Antifungal activity against Phytophthora infestans r0-3 assessed as inhibition of mycelial growth after 5 to 7 days; format: functional, organism-based; settings: for IC50: read-out: I50
Phytophthora infestans [24] = test: Antifungal activity against Phytophthora infestans r1234-2 assessed as inhibition of mycelial growth after 5 to 7 days; format: functional, organism-based; settings: for IC50: read-out: I50
Phytophthora infestans [25] = test: Antifungal activity against Phytophthora infestans r1234 assessed as inhibition of mycelial growth after 5 to 7 days; format: functional, organism-based; settings: for IC50: read-out: I50
Phytophthora infestans [26] = test: Antifungal activity against Phytophthora infestans TK-301 assessed as inhibition of mycelial growth after 5 to 7 days; format: functional, organism-based

## CC(C)OC(=O)N[C@H](C(=O)N[C@H](C)c1nc2ccc(F)cc2s1)C(C)C [BENTHIAVALICARB-ISOPROPYL]
Phytophthora infestans [1]
  inhibition: inactive
Phytophthora infestans [2]
  inhibition: inactive
Phytophthora infestans [3]
  inhibition: inactive
Phytophthora infestans [4]
  inhibition at 1 µg/mL: 0%
Phytophthora infestans [5]
  inhibition at 10 µg/mL: 0%
Phytophthora infestans [6]
  inhibition at 100 µg/mL: 45.5%
Phytophthora infestans [7]
  inhibition at 0.1 µg/mL: 95.5%
Phytophthora infestans [8]
  inhibition at 1 µg/mL: 100%
Phytophthora infestans [9]
  inhibition at 10 µg/mL: 100%
Phytophthora infestans [10]
  inhibition at 0.1 µg/mL: 98.6%
Phytophthora infestans [11]
  inhibition at 1 µg/mL: 100%
Phytophthora infestans [12]
  inhibition at 10 µg/mL: 100%
Phytophthora infestans [13]
  inhibition at 0.1 µg/mL: 45.2%
Phytophthora infestans [14]
  inhibition at 1 µg/mL: 96.8%
Phytophthora infestans [15]
  inhibition at 10 µg/mL: 97.6%
Phytophthora katsurae
  MIC: 0.03 µg/mL (≈ 0.0786 µM)
  IC50: 0.04 µg/mL (≈ 0.105 µM)
Phytophthora megasperma
  MIC: 0.1 µg/mL (≈ 0.262 µM)
  IC50: 0.02 µg/mL (≈ 0.0524 µM)
Phytophthora porri
  MIC: 0.1 µg/mL (≈ 0.262 µM)
  IC50: 0.02 µg/mL (≈ 0.0524 µM)
Phytophthora infestans [16]
  Activity: Active
Phytophthora infestans [17]
  Activity: Active
Phytophthora infestans [18]
  Activity: Active
Phytophthora infestans [19]
  Activity: Active
Phytophthora infestans [20]
  Activity: Active
Phytophthora infestans [21]
  Activity: Active
Phytophthora nicotianae
  MIC: 0.1 µg/mL (≈ 0.262 µM)
  IC50: 0.05 µg/mL (≈ 0.131 µM)
Phytophthora cactorum
  MIC: 0.03 µg/mL (≈ 0.0786 µM)
  IC50: 0.03 µg/mL (≈ 0.0786 µM)
Phytophthora palmivora
  MIC: 0.1 µg/mL (≈ 0.262 µM)
  IC50: 0.02 µg/mL (≈ 0.0524 µM)
Phytophthora capsici
  MIC: 0.03 µg/mL (≈ 0.0786 µM)
  IC50: 0.01 µg/mL (≈ 0.0262 µM)
Phytophthora infestans [22]
  MIC: 0.1 µg/mL (≈ 0.262 µM)
  IC50: 0.03 µg/mL (≈ 0.0786 µM)
Phytophthora infestans [23]
  MIC: 0.03 µg/mL (≈ 0.0786 µM)
  IC50: 0.03 µg/mL (≈ 0.0786 µM)
Phytophthora infestans [24]
  MIC: 0.1 µg/mL (≈ 0.262 µM)
  IC50: 0.03 µg/mL (≈ 0.0786 µM)
Phytophthora infestans [25]
  MIC: 0.1 µg/mL (≈ 0.262 µM)
  IC50: 0.02 µg/mL (≈ 0.0524 µM)
Phytophthora infestans [26]
  MIC: 0.03 µg/mL (≈ 0.0786 µM)
Phytophthora infestans [26]; read-out: I50
  IC50: 0.03 µg/mL (≈ 0.0786 µM)

## COCC(=O)N(c1c(C)cccc1C)C(C)C(=O)OC (configuration not stated) [METALAXYL]
Phytophthora katsurae
  MIC: > 100 µg/mL
  IC50: 0.46 µg/mL (≈ 1.65 µM)
Phytophthora megasperma
  MIC: > 100 µg/mL
  IC50: 0.34 µg/mL (≈ 1.22 µM)
Phytophthora porri
  MIC: > 3 µg/mL
  IC50: 0.08 µg/mL (≈ 0.286 µM)
Phytophthora nicotianae
  MIC: > 3 µg/mL
  IC50: 0.08 µg/mL (≈ 0.286 µM)
Phytophthora cactorum
  MIC: 0.3 µg/mL (≈ 1.07 µM)
  IC50: 0.03 µg/mL (≈ 0.107 µM)
Phytophthora palmivora
  MIC: > 3 µg/mL
  IC50: 0.54 µg/mL (≈ 1.93 µM)
Phytophthora capsici
  MIC: > 3 µg/mL
  IC50: 0.62 µg/mL (≈ 2.22 µM)
Phytophthora infestans [22]
  MIC: 3 µg/mL (≈ 10.7 µM)
  IC50: 0.15 µg/mL (≈ 0.537 µM)
Phytophthora infestans [23]
  MIC: > 10 µg/mL
  IC50: 0.21 µg/mL (≈ 0.752 µM)
Phytophthora infestans [24]
  MIC: > 10 µg/mL
  IC50: 0.05 µg/mL (≈ 0.179 µM)
Phytophthora infestans [25]
  MIC: 0.3 µg/mL (≈ 1.07 µM)
  IC50: 0.09 µg/mL (≈ 0.322 µM)
